{"source": "patent US10307410B2", "about": "“Mcl-1 modulating compounds for cancer treatment” (CENTRE REGIONAL DE LUTTE CONTRE LE CANCER FRANCOIS BACLESSE, priority 2014, dated 2019)", "type_in_all_cases": "cell-based", "key": {"[1]": {"system": "IGROV1-R10 ovarian cancer cells", "assay": "DNA content histograms (sub-G1) by flow cytometry", "conditions": "Molecule + Bcl-xL targeting siRNA", "protocol": "(§1) Exponentially growing cells were transfected by siRNA as described below, and after 48 h, cells were continuously exposed to (Het)aromatic oligosystems (10, 25 or 50 μM) dissolved in DMSO (<0.1% of total volume) for 4 to 24 supplementary hours.\nCells were seeded in 25 cm^2 flasks the day before to reach 30-50% confluency at the time of transfection. The transfection INTERFERin™ reagent (Polyplus Transfection, Strasbourg. France) was added to siRNA diluted in Opti-MEM® reduced serum medium (Invitrogen, Cergy-Pontoise, France) and complexes formation was allowed to proceed for 15 min at RT before being applied to cells. […]\nAdherent and floating cells were pooled, washed with 1×PBS and centrifuged at 200 g for 5 min before staining by Annexin V, propidium iodide or both, as recommended by the manufacturer (Roche Diagnostic, Indianapolis, USA). Briefly, 100 μl of Annexin V—Flit or propidium iodide or both were added on the cells pellet (10^6 cells) and incubated 15 minutes at room temperature in obscurity. 500 μl of sample buffer was then added on the suspensions that were thereafter analyzed using a Gallios flow cytometer (Beckman Coulter, Roissy, France) and cell cycle distribution was determined using Kaluza acquisition software (Beckman Coulter)."}, "[2]": {"system": "IGROV1-R10 ovarian cancer cells", "assay": "Nuclear morphology after DAPI staining", "set-up": "key to Apoptotic nuclear features: +: a few condensed or fragmented nuclei are observable after DAPI staining; ++: numerous condensed or fragmented nuclei are observable after DAPI staining (20-50%); +++: most of the nuclei are condensed or fragmented", "conditions": "Molecule + Bcl-xL targeting siRNA, DAPI staining", "protocol": "as §1\n(§2) Cells were seeded in 25 cm^2 flasks the day before to reach 30-50% confluency at the time of transfection. The transfection INTERFERin™ reagent (Polyplus Transfection, Strasbourg. France) was added to siRNA diluted in Opti-MEM® reduced serum medium (Invitrogen, Cergy-Pontoise, France) and complexes formation was allowed to proceed for 15 min at RT before being applied to cells. The final siRNA concentration in the flasks was 20 nM.\nAfter treatment, both detached and adherent cells were pooled after trypsinization, applied to a polylysine-coated glass slide by cytocentrifugation and fixed with a solution of ethanol/chloroform/acetic acid (6:3:1). The preparations were then incubated for 15 min at room temperature with 1 μg/ml DAPI solution (Boehringer Mannheim-Roche, Mannheim, Germany), washed in distillated water, mounted under a coverslip in Mowiol (Calbiochem) and analyzed under a fluorescence microscope (BX51, Olympus, Rungis, France).\nCells were fixed with 2.5% glutaraldehyde in PBS buffer, included in agar, rinsed in Sorensen's buffer, post-fixed in osmium tetroxide 1% in Sorensen's buffer, deshydrated in ethanol and embedded in EPON resin. Ultrathin sections were cut and stained with uranyl acetate and lead citrate and examined using a JEOL1011 transmission electron microscope."}, "[3]": {"system": "IGROV1-R10 ovarian cancer cells", "assay": "Cellular morphology / cell detachment, molecule alone or with Bcl-xL targeting siRNA", "conditions": "Molecule + Bcl-xL targeting siRNA", "protocol": "as §1, §2"}, "[4]": {"system": "IGROV1-R10 ovarian cancer cells", "assay": "PARP and caspase 3 cleavage by western blot", "set-up": "key to PARP cleavage: +: a little band corresponding to the 85 kDa cleaved form of PARP is observable on the western blot; ++: a band corresponding to the 85 kDa cleaved form of PARP is clearly observable on the western blot; +++: PARP in nearly completely cleaved", "conditions": "Molecule + Bcl-xL targeting siRNA", "protocol": "as §1, §2\nCells were rinsed with ice-cold PBS, suspended in a lysis buffer [RIPA:NaCl 150 mM, Tris (pH 8) 50 mM, Triton X100 1%, PMSF 4 mM, EDTA 5 mM, NaF 10 mM, NaPPi 10 mM, Na3OV4 1 mM, aprotinin 0.5 μl/ml and 4.6 ml ultra pure water] and incubated on ice for 30 minutes. Lysates were collected after centrifugation (13200 g, 10 min, 4° C.) and protein concentrations were determined using the Bradford assay (Bio-Rad, Hercules, USA). 20 μg of protein were separated by SDS-PAGE on a 4-12% gradient polyacrylamide gel (Invitrogen, Cergy-Pontoise, France) and transferred to Hybond-PVDF membranes (Amersham, Orsay, France). After blocking non-specific binding sites for 1 hour at RT by 5% (w/v) non-fat dry milk in TBS with 0.1% (v/v) Tween20 (T-TBS), the membranes were incubated overnight at 4° C. with the following rabbit monoclonal antibody: PARP, caspase-3 and Bcl-xL, Bim (Cell Signaling Technology, Ozyme, Saint-Quentin-en-Yvelines, France), Mcl-1 (Santa Cruz, Le Perray-en-Yvelines, France), HSP-70, Noxa (Calbiochem, Fontenay-sous-Bois, France), (Cell Signalling) and Actin (Sigma-Aldrich, Saint-Quentin Fallavier, France). Membranes were then washed with T-TBS and incubated for 1 hour with the appropriate horseradish peroxidase-conjugated anti-rabbit or anti-mouse (Amersham, Orsay, France) secondary antibodies. Revelation was done using a luminescent Image Analyzer (GE Healthcare, Orsay, France)."}}}
{"smiles": "Cc1cc(-c2ncc(-c3cccnc3)cc2/C=C/c2ccccc2)cnc1-c1cccc(O)c1", "note": "[compound 31364, 3-(3-methyl-5-(5-(pyridin-3-yl)-3-styrylpyridin-2-yl)pyridin-2-yl)phenol]", "values": [{"measurement": "Sub-G1 (%)", "setting": "[1]", "value": 39.6, "unit": "%"}, {"measurement": "Apoptotic nuclear features", "setting": "[2]", "value": "++ (numerous condensed or fragmented nuclei are observable after DAPI staining (20-50%))"}]}
{"smiles": "COc1ccc(-c2cnc(-c3cnc(-c4cc(OC)c(OC)c(OC)c4)c(C)c3)c(/C=C/c3ccccc3)c2)cc1OC", "note": "[compound 30849, 5-(3,4-dimethoxyphenyl)-2-(6-(3,4,5-trimethoxyphenyl)-5-methylpyridin-3-yl)-3-styrylpyridine]", "values": [{"measurement": "Sub-G1 (%)", "setting": "[1]", "value": 19.9, "unit": "%"}, {"measurement": "Apoptotic nuclear features", "setting": "[2]", "value": "+"}]}
{"smiles": "Cc1cc(-c2ncc(-c3ccc(C#N)cc3)cc2/C=C/c2ccccc2)cnc1-c1ccc(C#N)cc1", "note": "[compound 30854, 3-methyl-2-(4-cyanophenyl)-5-(5-(4-cyanophenyl)-3-styrylpyridin-2-yl)pyridine]", "values": [{"measurement": "Sub-G1 (%)", "setting": "[1]", "value": 24.3, "unit": "%"}, {"measurement": "Cell detachment", "setting": "[3]", "value": "± (very few cells were detached from the support (less than 10%))"}, {"measurement": "Apoptotic nuclear features", "setting": "[2]", "value": "+"}]}
{"smiles": "Cc1cc(-c2ncc(-c3cccnc3)cc2/C=C/c2ccccc2)cnc1-c1ccccc1", "note": "[compound 31349, 3-(6-(5-methyl-6-phenylpyridin-3-yl)-5-styrylpyridin-3-yl)pyridine]", "values": [{"measurement": "Sub-G1 (%)", "setting": "[1]", "value": 59.2, "unit": "%"}, {"measurement": "PARP cleavage", "setting": "[4]", "value": "+++"}, {"measurement": "Apoptotic nuclear features", "setting": "[2]", "value": "+++"}]}
{"smiles": "Cc1cc(-c2ncc(-c3ccccc3)cc2/C=C/c2ccccc2)cnc1-c1ccccc1", "note": "[compound 30814, 3-methyl-2-phenyl-5-(5-phenyl-3-styrylpyridin-2-yl)pyridine]", "values": [{"measurement": "Sub-G1 (%)", "setting": "[1]", "value": 37.2, "unit": "%"}, {"measurement": "PARP cleavage", "setting": "[4]", "value": "+"}, {"measurement": "Apoptotic nuclear features", "setting": "[2]", "value": "+"}]}
{"smiles": "COc1cc(-c2cnc(-c3cnc(-c4cc(OC)c(OC)c(OC)c4)c(C)c3)c(/C=C/c3ccccc3)c2)cc(OC)c1OC", "note": "[compound 30847, 5-(3,4,5-trimethoxyphenyl)-2-(6-(3,4,5-trimethoxyphenyl)-5-methylpyridin-3-yl)-3-styrylpyridine]", "values": [{"measurement": "Sub-G1 (%)", "setting": "[1]", "value": 22, "unit": "%"}, {"measurement": "Cell detachment", "setting": "[3]", "value": "± (very few cells were detached from the support (less than 10%))"}, {"measurement": "Apoptotic nuclear features", "setting": "[2]", "value": "+"}]}
{"smiles": "Cc1cc(-c2ncc(-c3cncnc3)cc2/C=C/c2ccccc2)cnc1-c1cncnc1", "note": "[compound 31361, 5-(3-methyl-5-(5-(pyrimidin-5-yl)-3-styrylpyridin-2-yl)pyridin-2-yl)pyrimidine]", "values": [{"measurement": "Sub-G1 (%)", "setting": "[1]", "value": 35.2, "unit": "%"}, {"measurement": "Apoptotic nuclear features", "setting": "[2]", "value": "++ (numerous condensed or fragmented nuclei are observable after DAPI staining (20-50%))"}]}
{"smiles": "Cc1cc(-c2ncc(-c3cccnc3)cc2/C=C/c2ccccc2)cnc1-c1cccc(C/C(N)=N/O)c1", "note": "[compound 31367, (1Z)—N′-hydroxy-2-(3-(3-methyl-5-(5-(pyridin-3-yl)-3-styrylpyridin-2-yl)pyridin-2-yl)phenyl)acetamidine]", "values": [{"measurement": "Sub-G1 (%)", "setting": "[1]", "value": 52.7, "unit": "%"}, {"measurement": "Apoptotic nuclear features", "setting": "[2]", "value": "+++"}]}
{"smiles": "Cc1cc(-c2ncc(-c3ccccc3)cc2/C=C/c2ccccc2)cnc1-c1cccnc1", "note": "[compound 31348, 3-methyl-5-(5-phenyl-3-styrylpyridin-2-yl)-2-(pyridin-3-yl)pyridine]", "values": [{"measurement": "Sub-G1 (%)", "setting": "[1]", "value": 58.8, "unit": "%"}, {"measurement": "PARP cleavage", "setting": "[4]", "value": "+++"}, {"measurement": "Apoptotic nuclear features", "setting": "[2]", "value": "+++"}]}
{"smiles": "Cc1cc(-c2ncc(-c3cnc(Cl)n3C)cc2/C=C/c2ccccc2)cnc1-c1cnc(Cl)n1C", "note": "[compound 31351, 5-(2-chloro-1-methyl-1H-imidazol-5-yl)-2-(6-(2-chloro-1-methyl-1H-imidazol-5-yl)-5-methylpyridin-3-yl)-3-styrylpyridine]", "values": [{"measurement": "Sub-G1 (%)", "setting": "[1]", "value": 56.7, "unit": "%"}, {"measurement": "Apoptotic nuclear features", "setting": "[2]", "value": "+++"}]}
{"smiles": "Cc1cc(-c2ncc(-c3ccn[nH]3)cc2/C=C/c2ccccc2)cnc1-c1ccn[nH]1", "note": "[compound 31363, 2-(5-methyl-6-(1H-pyrazol-5-yl)pyridin-3-yl)-5-(1H-pyrazol-5-yl)-3-styrylpyridine]", "values": [{"measurement": "Sub-G1 (%)", "setting": "[1]", "value": 63.7, "unit": "%"}, {"measurement": "Apoptotic nuclear features", "setting": "[2]", "value": "+++"}]}
{"smiles": "COc1ccc(-c2cnc(-c3cnc(-c4ccc(OC)c(OC)c4)c(C)c3)c(/C=C/c3ccccc3)c2)cc1OC", "note": "[compound 30846, 2-(3,4-dimethoxyphenyl)-5-(5-(3,4-dimethoxyphenyl)-3-styrylpyridin-2-yl)-3-methylpyridine]", "values": [{"measurement": "Sub-G1 (%)", "setting": "[1]", "value": 33.1, "unit": "%"}, {"measurement": "Apoptotic nuclear features", "setting": "[2]", "value": "+"}]}
{"smiles": "COc1ccc(-c2ncc(-c3ncc(-c4cc(OC)c(OC)c(OC)c4)cc3/C=C/c3ccccc3)cc2C)cc1OC", "note": "[compound 30850, 5-(3,4,5-trimethoxyphenyl)-2-(6-(3,4-dimethoxyphenyl)-5-methylpyridin-3-yl)-3-styrylpyridine]", "values": [{"measurement": "Sub-G1 (%)", "setting": "[1]", "value": 20.2, "unit": "%"}, {"measurement": "Apoptotic nuclear features", "setting": "[2]", "value": "+"}]}
{"smiles": "Cc1cc(-c2ncc(-c3sccc3C)cc2/C=C/c2ccccc2)cnc1-c1sccc1C", "note": "[compound 31336, 3-methyl-2-(3-methylthiophen-2-yl)-5-(5-(3-methylthiophen-2-yl)-3-(E)-styrylpyridin-2-yl)pyridine]", "values": [{"measurement": "Sub-G1 (%)", "setting": "[1]", "value": 48.8, "unit": "%"}, {"measurement": "Apoptotic nuclear features", "setting": "[2]", "value": "++ (numerous condensed or fragmented nuclei are observable after DAPI staining (20-50%))"}]}
